Source: PubChem BioAssay AID2060620 (Molecular Pharmacology Branch, DTP, NCI, 2025)

Test system: 328373-195-R-J1-PDC complex spheroids, viability % test/control
Experiment: Anticancer human tumor 328373-195-R-J1-PDC patient-derived head and neck squamous carcinoma cell line growth inhibition [CLK]
Settings: for IC50: curve of first compound; for viability, T/C: stronger effect = lower value
Outline: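 Patient-derived tumor cells grown as complex spheroids with HUVEC endothelial cells and mesenchymal stem cells, treated with drug combinations. Concentrations descend in half-log steps from near clinical Cmax, or from 10 microM if Cmax unknown.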

[1] = second compound 0.0316 µM, first compound 0.0316 µM
[2] = second compound 0.0316 µM, first compound 0.1 µM
[3] = second compound 0.0316 µM, first compound 0.316 µM
[4] = second compound 0.0316 µM, first compound 1 µM
[5] = second compound 0.0316 µM, first compound 3.16 µM
[6] = second compound 0.0316 µM, first compound 10 µM
[7] = second compound 0.1 µM, first compound 0.0316 µM
[8] = second compound 0.1 µM, first compound 0.1 µM
[9] = second compound 0.1 µM, first compound 0.316 µM
[10] = second compound 0.1 µM, first compound 1 µM
[11] = second compound 0.1 µM, first compound 3.16 µM
[12] = second compound 0.1 µM, first compound 10 µM
[13] = second compound 0.316 µM, first compound 0.0316 µM
[14] = second compound 0.316 µM, first compound 0.1 µM
[15] = second compound 0.316 µM, first compound 0.316 µM
[16] = second compound 0.316 µM, first compound 1 µM
[17] = second compound 0.316 µM, first compound 3.16 µM
[18] = second compound 0.316 µM, first compound 10 µM
[19] = second compound 1 µM, first compound 0.0316 µM
[20] = second compound 1 µM, first compound 0.1 µM
[21] = second compound 1 µM, first compound 0.316 µM
[22] = second compound 1 µM, first compound 1 µM
[23] = second compound 1 µM, first compound 3.16 µM
[24] = second compound 1 µM, first compound 10 µM
[25] = second compound 3.16 µM, first compound 0.0316 µM
[26] = second compound 3.16 µM, first compound 0.1 µM
[27] = second compound 3.16 µM, first compound 0.316 µM
[28] = second compound 3.16 µM, first compound 1 µM
[29] = second compound 3.16 µM, first compound 3.16 µM
[30] = second compound 3.16 µM, first compound 10 µM
[31] = second compound 10 µM, first compound 0.0316 µM
[32] = second compound 10 µM, first compound 0.1 µM
[33] = second compound 10 µM, first compound 0.316 µM
[34] = second compound 10 µM, first compound 1 µM
[35] = second compound 10 µM, first compound 3.16 µM
[36] = second compound 10 µM, first compound 10 µM
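Also: spheroids exposed to the agents for 7 days.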

Question: How did the IC50 (second compound 0.0316 µM) turn out when `CC1(C)CCC(CN2CCN(c3ccc(C(=O)NS(=O)(=O)c4ccc(NCC5CCOCC5)c([N+](=O)[O-])c4)c(Oc4cnc5[nH]ccc5c4)c3)CC2)=C(c2ccc(Cl)cc2)C1` + CNC(=O)c1ccc(Nc2nc(OC3CCCC3)c3c(-c4ccc5nc(C)oc5c4)c[nH]c3n2)c(OC)c1 was run?
Answer: Its IC50 is 1390 nM.

Question: What about the IC50 (second compound 0.1 µM) of the same molecule?
Answer: Its IC50 is < 31.6 nM.

Question: And the IC50 (second compound 0.316 µM)?
Answer: Its IC50 is < 31.6 nM.

Question: What about the IC50 (second compound 1 µM) of the same molecule?
Answer: Its IC50 is < 31.6 nM.

Question: And the IC50 (second compound 3.16 µM)?
Answer: The IC50 was < 31.6 nM.

Question: What about the IC50 (second compound 10 µM) of the same molecule?
Answer: The IC50 was < 31.6 nM.

Question: What about the viability, T/C [1] of the same molecule?
Answer: Its viability, T/C is 55.4%.

Question: And the viability, T/C [2]?
Answer: Its viability, T/C is 54.7%.

Question: And the viability, T/C [3]?
Answer: The viability, T/C was 51.1%.

Question: What about the viability, T/C [4] of the same molecule?
Answer: Its viability, T/C is 55.7%.

Question: And the viability, T/C [5]?
Answer: Its viability, T/C is 39.5%.

Question: What about the viability, T/C [6] of the same molecule?
Answer: Its viability, T/C is 7.81%.

Question: What about the viability, T/C [7] of the same molecule?
Answer: Its viability, T/C is 9.96%.

Question: What about the viability, T/C [8] of the same molecule?
Answer: Its viability, T/C is 10.7%.

Question: And the viability, T/C [9]?
Answer: The viability, T/C was 12.1%.

Question: And the viability, T/C [10]?
Answer: The viability, T/C was 11.7%.

Question: And the viability, T/C [11]?
Answer: The viability, T/C was 11.5%.

Question: And the viability, T/C [12]?
Answer: Its viability, T/C is 6.36%.

Question: What about the viability, T/C [13] of the same molecule?
Answer: Its viability, T/C is 10%.

Question: And the viability, T/C [14]?
Answer: Its viability, T/C is 10.9%.

Question: And the viability, T/C [15]?
Answer: The viability, T/C was 10.2%.

Question: And the viability, T/C [16]?
Answer: The viability, T/C was 9.51%.

Question: What about the viability, T/C [17] of the same molecule?
Answer: The viability, T/C was 8.53%.

Question: And the viability, T/C [18]?
Answer: Its viability, T/C is 6.4%.

Question: What about the viability, T/C [19] of the same molecule?
Answer: The viability, T/C was 7.73%.

Question: What about the viability, T/C [20] of the same molecule?
Answer: The viability, T/C was 8.42%.

Question: What about the viability, T/C [21] of the same molecule?
Answer: The viability, T/C was 10.8%.

Question: And the viability, T/C [22]?
Answer: Its viability, T/C is 10.6%.

Question: And the viability, T/C [23]?
Answer: The viability, T/C was 9.13%.

Question: And the viability, T/C [24]?
Answer: The viability, T/C was 6.23%.

Question: And the viability, T/C [25]?
Answer: The viability, T/C was 8.9%.

Question: And the viability, T/C [26]?
Answer: The viability, T/C was 11.5%.

Question: And the viability, T/C [27]?
Answer: Its viability, T/C is 10.7%.

Question: And the viability, T/C [28]?
Answer: Its viability, T/C is 10.2%.

Question: What about the viability, T/C [29] of the same molecule?
Answer: The viability, T/C was 9.43%.

Question: What about the viability, T/C [30] of the same molecule?
Answer: The viability, T/C was 6.44%.

Question: And the viability, T/C [31]?
Answer: The viability, T/C was 12.1%.

Question: And the viability, T/C [32]?
Answer: The viability, T/C was 9.87%.

Question: What about the viability, T/C [33] of the same molecule?
Answer: The viability, T/C was 10.2%.

Question: What about the viability, T/C [34] of the same molecule?
Answer: The viability, T/C was 11.4%.

Question: What about the viability, T/C [35] of the same molecule?
Answer: Its viability, T/C is 12.4%.

Question: What about the viability, T/C [36] of the same molecule?
Answer: Its viability, T/C is 11.9%.

Question: Which results are given for `C=C(F)C(=O)N1CCN(c2nc(OCC3CCCN3C)nc3c2CCN(c2cccc4cccc(Cl)c24)C3)CC1CC#N` (centres undefined) + CN1CCN(c2cc(C(=O)Nc3cc4cc(-c5cnn(C)c5)ccc4cn3)ccn2)CC1?
Answer: IC50 (second compound 0.0316 µM): 4080 nM; IC50 (second compound 0.1 µM): 3570 nM; IC50 (second compound 0.316 µM): < 31.6 nM; IC50 (second compound 1 µM): < 31.6 nM; IC50 (second compound 3.16 µM): < 31.6 nM; IC50 (second compound 10 µM): < 31.6 nM; viability, T/C [1]: 103%; viability, T/C [2]: 99.5%; viability, T/C [3]: 96.9%; viability, T/C [4]: 91.5%; viability, T/C [5]: 63%; viability, T/C [6]: 3.75%; viability, T/C [7]: 80.5%; viability, T/C [8]: 90.8%; viability, T/C [9]: 81.7%; viability, T/C [10]: 81.6%; viability, T/C [11]: 55.7%; viability, T/C [12]: 1.67%; viability, T/C [13]: 35.2%; viability, T/C [14]: 38.1%; viability, T/C [15]: 34.7%; viability, T/C [16]: 34.3%; viability, T/C [17]: 22.8%; viability, T/C [18]: 3.9%; viability, T/C [19]: 0.25%; viability, T/C [20]: 4.59%; viability, T/C [21]: 1.43%; viability, T/C [22]: 0.34%; viability, T/C [23]: 1.34%; viability, T/C [24]: 0.52%; viability, T/C [25]: 2.92%; viability, T/C [26]: 0.86%; viability, T/C [27]: 1.39%; viability, T/C [28]: 1.82%; viability, T/C [29]: 5.78%; viability, T/C [30]: 0.76%; viability, T/C [31]: 4.95%; viability, T/C [32]: 2.58%; viability, T/C [33]: 0.33%; viability, T/C [34]: 0.79%; viability, T/C [35]: 1.9%; viability, T/C [36]: 0.96%
